Experimental data published in patent US5981558A, “DC107 derivatives” (Kyowa Hakko Kogyo Co., Ltd., priority 1996, dated 1999).
Read-outs that look alike come from different tables or passages of the source.

Legend:
[1] = system: Sarcoma 180 mouse solid tumor; assay: Antitumor activity against Sarcoma 180 mouse solid tumor; assay type: in vivo, mouse (ddY); details: Sarcoma-180, iv, 168 h
Protocol: To a ddY mouse were intraperitoneally transplanted 5×10^6 sarcoma 180 cells. On the seventh day from the transplant, the cells were collected from the ascites, washed once with sterilized physiological saline, and then diluted with sterilized physiological saline to prepare a cell suspension having a concentration of 5×10^7 cells/mL. This suspension was transplanted in an amount of 0.01 mL to a subcutaneous part of the right axilla of each of male ddY mice each weighing 20±1 g.
A test compound was dissolved in physiological saline containing polyoxyethylene sorbitan monolaurate. At 24 hours after the tumor transplant, 0.2 mL of the solution was intravenously administered to the tail of each of a group of five mice.

HeLa S3 cells = assay: HeLa S3 Cell Growth Inhibition Test; assay type: cell-based; details: 72 hours incubation, Neutral Red
Protocol: In each well of a 96-well microtiter plate was placed 0.1 mL of HeLa S3 cells having a concentration of 8×10^3 cells/mL and prepared in an MEM culture medium containing 10% fetal bovine serum and 2 mM glutamine. After the cells were incubated overnight at 37° C. in a carbon dioxide incubator, a test compound suitably diluted with a medium was added to the wells in an amount of 0.05 mL for each well. The cells were incubated at 37° C. for 72 hours in a carbon dioxide incubator. After the culture supernatant was removed, 0.1 mL of a culture medium containing 0.02% Neutral Red was added to each well. The cells were then incubated at 37° C. for 1 hour in a carbon dioxide incubator to dye the cells. After the culture supernatant was removed, each residue was rinsed once with physiological saline and the pigment was extracted with 0.001 N hydrochloric acid/30% ethanol. The absorbance at 550 nm of each extract was measured with a microplate reader. The drug concentration required for the 50% inhibition of cell growth, which is referred to as IC50, was calculated by comparing the absorbance for untreated cells with those for cells treated with the drug in known concentrations.

[2] = Homo sapiens, HeLa S3, 72 h, HeLa S3, read-out: IC50, HeLa S3 cell growth inhibition
[3] = read-out: T/C (tumor volume ratio treated/control)
[4] = Homo sapiens, HeLa S3, 72 h, read-out: IC50, HeLa S3 cell growth inhibition, HeLa S3

| SMILES | IC50 (HeLa S3 cells; [2]) [nM] | IC50 (HeLa S3 cells; [4]) [nM] | other results |
| --- | --- | --- | --- |
| CC1=CC(OC2CCCCO2)C(=O)C=CC=Cc2csc(n2)C(C)N2C(=O)CC(C(C)(O)C(=O)SCOC(=O)C(C)(C)NC(=O)OCc3ccccc3)(CC1)[S+]2[O-] (single isomer, unassigned) [Compound 4] | 39 | – | response vs control in vivo at 8 mg/kg ([1]; 8.0 mg/kg i.v. once, 24 hours after transplant, tumor volume on day 7, read-out: T/C (tumor volume ratio treated/control)): 30% |
| COC(=O)NCC(=O)OCSC(=O)C(C)(O)C12CC/C(C)=C/C(OC3CCCCO3)C(=O)/C=C/C=C\c3csc(n3)C(C)N(C(=O)C1)[S+]2[O-] (single isomer, unassigned) [Compound 41] | – | – | response vs control in vivo at 4 mg/kg ([1]; 4.0 mg/kg i.v. once, 24 hours after transplant, tumor volume on day 7, read-out: T/C (tumor volume ratio treated/control)): 32%; IC50 (HeLa S3 cells; HeLa S3, read-out: IC50, HeLa S3 cell growth inhibition): 4 nM |
| COC(=O)[C@H](CCC(=O)OCSC(=O)C(C)(O)C12CC/C(C)=C/C(OC3CCCCO3)C(=O)/C=C/C=C\c3csc(n3)C(C)N(C(=O)C1)[S+]2[O-])NC(=O)[C@@]12O[C@H]3COC(C)(C)O[C@H]3[C@@H]1OC(C)(C)O2 (single isomer, unassigned) [Compound 50] | – | 16 | response vs control in vivo at 8 mg/kg [1, 3]: 41% |
| COC(=O)[C@H](CCC(=O)OCSC(=O)C(C)(O)C12CCC(C)=CC(O)C(=O)C=CC=Cc3csc(n3)C(C)N(C(=O)C1)[S+]2[O-])NC(=O)C1(C)COC(C)(C)OC1 (some centres unmarked) [Compound 27] | – | – | response vs control in vivo at 2 mg/kg [1, 3]: 46% |
| COCCOCCOCCOCCOCCOCC(=O)OCSC(=O)C(C)(O)C12CC/C(C)=C/C(O)C(=O)/C=C/C=C\c3csc(n3)C(C)N(C(=O)C1)[S+]2[O-] (centres unmarked) [Compound 37] | – | – | response vs control in vivo at 8 mg/kg [1, 3]: 36% |
| C/C1=C\C(OC2CCCCO2)C(=O)/C=C/C=C\c2csc(n2)C(C)N2C(=O)CC(C(C)(O)C(=O)SCc3oc(=O)oc3COC(=O)CCC(=O)O)(CC1)[S+]2[O-] (centres unmarked) [Compound 95] | – | 27 | – |
| C/C1=C\C(O)C(=O)/C=C/C=C\c2csc(n2)C(C)N2C(=O)CC(C(C)(O)C(=O)SCc3oc(=O)oc3COC(=O)C(C)(C)NC(=O)OC(C)(C)C)(CC1)[S+]2[O-] (centres unmarked) [Compound 96] | – | 29 | – |
| CC(=O)NCC(=O)OCc1oc(=O)oc1CSC(=O)C(C)(O)C12CC/C(C)=C/C(O)C(=O)/C=C/C=C\c3csc(n3)C(C)N(C(=O)C1)[S+]2[O-] (centres unmarked) [Compound 97] | 120 | – | – |
| COCCOCCOCC(=O)OCc1oc(=O)oc1CSC(=O)C(C)(O)C12CC/C(C)=C/C(OC3(OC)CCOCC3)C(=O)/C=C/C=C\c3csc(n3)C(C)N(C(=O)C1)[S+]2[O-] (centres unmarked) [Compound 103] | 26 | – | – |
| COCCOCCOCCOCC(=O)OCc1oc(=O)oc1CSC(=O)C(C)(O)C12CC/C(C)=C/C(OC3CCCCO3)C(=O)/C=C/C=C\c3csc(n3)C(C)N(C(=O)C1)[S+]2[O-] (centres unmarked) [Compound 104] | 20 | – | – |
| COC(=O)OCc1oc(=O)oc1CSC(=O)C(C)(O)C12CC/C(C)=C/C(OC3CCCCO3)C(=O)/C=C/C=C\c3csc(n3)C(C)N(C(=O)C1)[S+]2[O-] (centres unmarked) [Compound 106] | 11 | – | – |
| C/C1=C\C(OC2CCCCO2)C(=O)/C=C/C=C\c2csc(n2)C(C)N2C(=O)CC(C(C)(O)C(=O)SCc3oc(=O)oc3COC(=O)Oc3ccc([N+](=O)[O-])cc3)(CC1)[S+]2[O-] (centres unmarked) [Compound 107] | – | 21 | – |
| CCCCNC(=O)OCc1oc(=O)oc1CSC(=O)C(C)(O)C12CC/C(C)=C/C(OC3CCCCO3)C(=O)/C=C/C=C\c3csc(n3)C(C)N(C(=O)C1)[S+]2[O-] (centres unmarked) [Compound 108] | – | 13 | – |
| C/C1=C\C(OC2CCCCO2)C(=O)/C=C/C=C\c2csc(n2)C(C)N2C(=O)CC(C(C)(O)C(=O)SCc3oc(=O)oc3COC(=O)N3CCN(C)CC3)(CC1)[S+]2[O-] (centres unmarked) [Compound 109] | – | 52 | – |
| C/C1=C\C(OC2CCCCO2)C(=O)/C=C/C=C\c2csc(n2)C(C)N2C(=O)CC(C(C)(O)C(=O)SCc3oc(=O)oc3COC(=O)NCCO)(CC1)[S+]2[O-] (centres unmarked) [Compound 110] | – | 22 | – |
| C=C(CSC(=O)C(C)(O)C12CC/C(C)=C/C(O)C(=O)/C=C/C=C\c3csc(n3)C(C)N(C(=O)C1)[S+]2[O-])C(=O)OC (centres unmarked) [Compound 111] | – | 20 | – |
| C=C(CSC(=O)C(C)(O)C12CC/C(C)=C/C(OC3(OC)CCOCC3)C(=O)/C=C/C=C\c3csc(n3)C(C)N(C(=O)C1)[S+]2[O-])C(=O)OC (centres unmarked) [Compound 113] | 42 | – | – |
| C=C(CSC(=O)C(C)(O)C12CC/C(C)=C/C(O)C(=O)/C=C/C=C\c3csc(n3)C(C)N(C(=O)C1)[S+]2[O-])C(=O)O (centres unmarked) [Compound 115] | > 10000 | – | – |

| SMILES | IC50 (HeLa S3 cells; [2]) [nM] | IC50 (HeLa S3 cells; [4]) [nM] | other results |
| --- | --- | --- | --- |
| C=C(CSC(=O)C(C)(O)C12CC/C(C)=C/C(OC3(OC)CCOCC3)C(=O)/C=C/C=C\c3csc(n3)C(C)N(C(=O)C1)[S+]2[O-])C(=O)O (centres unmarked) [Compound 116] | 8500 | – | – |
| C=C(CSC(=O)C(C)(O)C12CC/C(C)=C/C(O)C(=O)/C=C/C=C\c3csc(n3)C(C)N(C(=O)C1)[S+]2[O-])C(=O)N1CCCCC1 (centres unmarked) [Compound 117] | – | 2100 | – |
| CCC/C=C(\CSC(=O)C(C)(O)C12CC/C(C)=C/C(O)C(=O)/C=C/C=C\c3csc(n3)C(C)N(C(=O)C1)[S+]2[O-])C(=O)OC (centres unmarked) [Compound 118] | – | 580 | – |
| CCC/C=C(\CSC(=O)C(C)(O)C12CC/C(C)=C/C(OC3(OC)CCOCC3)C(=O)/C=C/C=C\c3csc(n3)C(C)N(C(=O)C1)[S+]2[O-])C(=O)OC (centres unmarked) [Compound 119] | 870 | – | – |
| COC(=O)/C(=C/c1ccccc1)CSC(=O)C(C)(O)C12CC/C(C)=C/C(O)C(=O)/C=C/C=C\c3csc(n3)C(C)N(C(=O)C1)[S+]2[O-] (centres unmarked) [Compound 120] | – | 270 | – |
| CC1=C(CSC(=O)C(C)(O)C23CC/C(C)=C/C(O)C(=O)/C=C/C=C\c4csc(n4)C(C)N(C(=O)C2)[S+]3[O-])C(=O)OC(C)(C)O1 (centres unmarked) [Compound 121] | 1500 | – | – |
| CC1=C(CSC(=O)C(C)(O)C23CC/C(C)=C/C(O)C(=O)/C=C/C=C\c4csc(n4)C(C)N(C(=O)C2)[S+]3[O-])C(=O)OC2(CCOCC2)O1 (centres unmarked) [Compound 124] | 960 | – | – |
| CCOC(=O)N1CCC2(CC1)OC(=O)C(CSC(=O)C(C)(O)C13CC/C(C)=C/C(O)C(=O)/C=C/C=C\c4csc(n4)C(C)N(C(=O)C1)[S+]3[O-])=C(C)O2 (centres unmarked) [Compound 126] | – | – | IC50 (HeLa S3 cells; Homo sapiens, HeLa S3, read-out: IC50, HeLa S3 cell growth inhibition): 5500 nM |
| C/C1=C\C(O)C(=O)/C=C/C=C\c2csc(n2)C(C)N2C(=O)CC(C(C)(O)C(=O)SCOC(=O)CCCNC(=O)C3(C)COC(C)(C)OC3)(CC1)[S+]2[O-] (centres unmarked) [Compound 138] | – | – | response vs control in vivo at 4 mg/kg [1, 3]: 34% |
| C/C1=C\C(O)C(=O)/C=C/C=C\c2csc(n2)C(C)N2C(=O)CC(C(C)(O)C(=O)SCOC(=O)CCCNC(=O)[C@@]34O[C@@H](CO)[C@@H](O)[C@@H]3OC(C)(C)O4)(CC1)[S+]2[O-] (some centres unmarked) [Compound 141] | – | – | response vs control in vivo at 4 mg/kg [1, 3]: 31% |
| C/C1=C\C(O)C(=O)/C=C/C=C\c2csc(n2)C(C)N2C(=O)CC(C(C)(O)C(=O)SCOC(=O)OCCN3CCCC3=O)(CC1)[S+]2[O-] (centres unmarked) [Compound 146] | – | – | response vs control in vivo at 4 mg/kg [1, 3]: 38% |
| COCCOCCOCCOCC(=O)OCSC(=O)C(C)(O)C12CC/C(C)=C/C(O)C(=O)/C=C/C=C\c3csc(n3)C(C)N(C(=O)C1)[S+]2[O-] (centres unmarked) [Compound 147] | – | – | response vs control in vivo at 2 mg/kg [1, 3]: 43% |
| COCCOCCOCCOC(=O)OCSC(=O)C(C)(O)C12CC/C(C)=C/C(O)C(=O)/C=C/C=C\c3csc(n3)C(C)N(C(=O)C1)[S+]2[O-] (centres unmarked) [Compound 149] | – | – | response vs control in vivo at 8 mg/kg [1, 3]: 42% |
| C/C1=C\C(O)C(=O)/C=C/C=C\c2csc(n2)C(C)N2C(=O)CC(C(C)(O)C(=O)SCc3oc(=O)oc3CO[C@@H]3C[C@@H](O)[C@H](O)[C@@H](CO)O3)(CC1)[S+]2[O-] (some centres unmarked) [Compound 152] | – | – | response vs control in vivo at 16 mg/kg [1, 3]: 17% |
| C/C1=C\C(O)C(=O)/C=C/C=C\c2csc(n2)C(C)N2C(=O)CC(C(C)(O)C(=O)SCc3oc(=O)oc3CO[C@@H]3C[C@H](O)[C@@H](O)[C@H](C)O3)(CC1)[S+]2[O-] (some centres unmarked) [Compound 154] | – | – | response vs control in vivo at 4 mg/kg [1, 3]: 40% |
| C/C1=C\C(O)C(=O)/C=C/C=C\c2csc(n2)C(C)N2C(=O)CC(C(C)(O)C(=O)SCc3oc(=O)oc3CO[C@H]3C[C@H](O)[C@@H](O)[C@H](C)O3)(CC1)[S+]2[O-] (some centres unmarked) [Compound 155] | – | – | response vs control in vivo at 8 mg/kg [1, 3]: 37% |
| C/C1=C\C(OC2CCCCO2)C(=O)/C=C/C=C\c2csc(n2)C(C)N2C(=O)CC(C(C)(O)C(=O)SCc3oc(=O)oc3COC(=O)CN(C)C)(CC1)[S+]2[O-] (centres unmarked) [Compound 159] | – | – | response vs control in vivo at 32 mg/kg [1, 3]: 33% |
